According to PubChem BioAssay AID2060355 (Molecular Pharmacology Branch, DTP, NCI, 2025):

System: 485368-065-R4-J2-PDC spheroids with HUVEC/MSC, viability
Assay: Anticancer human tumor 485368-065-R4-J2-PDC patient-derived pancreatic carcinoma cell line growth inhibition [TAK]
Conditions: for IC50: curve of first compound; for viability, T/C: stronger effect = lower value
Excerpt: Combinatorial screen of targeted agents with TAK-243 and ipatasertib in multi-cell type tumor spheroids
A high-throughput screen of multi-cell type tumor spheroids was designed to identify active combinations of targeted small molecules and TAK-243 or ipatasertib. Complex spheroids include a stromal component modeled by human endothelial cells (HUVEC) and fibroblasts modeled by human mesenchymal stem cells (MSCs). The concentration ranges selected for each drug and investigational agent were based upon clinically achievable concentrations if the clinical Cmax of the agent was known.
Compounds. The drugs and investigational agents: TAK-243 (785004), ipatasertib (767898), everolimus (733504), selumetinib (741078), bortezomib (756655), trametinib (758246), ixazomib (758254), vemurafenib (761431), dabrafenib (764134), sapanisertib (764658), alpelisib (765974), and copanlisib (816437), were obtained from the National Cancer Institute (NCI) Developmental Therapeutics Program Chemical Repository. The FDA-approved anticancer drug set is available from the NCI Developmental Therapeutics Program. […] The stock solutions were prepared in dimethyl sulfoxide (DMSO, Sigma-Aldrich, St. Louis, MO, cat. D2650) at 800-fold the tested concentration and stored at -70 degrees C prior to their use. All drugs and investigational agents were tested over a range starting from a high concentration at or near the clinical Cmax and decreasing in half-log increments. If the clinical Cmax for an agent had not been determined, the highest concentration tested was 10 microM.
NCI60 Cell Culture. NCI60 cell lines were obtained from the NCI Developmental Therapeutics Program Tumor Repository. For each lot of cells, the Repository performed Applied Biosystems AmpFLSTR Identifiler testing with PCR amplification to confirm consistency with the published Identifier STR profile for each cell line. Cells were kept in continuous culture for no more than 20 passages. The optimal seeding densities for each of the cell lines at each time point assessed were determined prior to performing the concentration response studies. Briefly, the NCI60 human tumor lines were grown as monolayers in RPMI 1640 medium supplemented with 10% FBS and 2 mmol/L L-glutamine.
An additional 2 lines were from the NCI60 cell line panel including melanomas, MALME-3M and SK-MEL-2. Pooled donor human umbilical vein endothelial cells (HUVEC, Lonza, cat. CC-2519) and human mesenchymal stem cells (hMSC, Lonza, cat. PT-2501) were purchased from Lonza (Walkersville, MD).
PDMR cell lines were grown in complete medium (DC medium): Dulbecco's modified Eagle's medium (DMEM)/F12 supplemented with 5% fetal bovine serum (FBS), 2 mM L-glutamine, 100 U/mL penicillin and 100 µg/ml streptomycin, 0.4 µg/ml hydrocortisone, 10 ng/ml epidermal growth factor (EGF) recombinant human protein, 24 µg/mL adenine, and 0.1 mg/mL primocin. During culture from frozen stock vials, PDMR cells were cultured in the same medium containing 10 µM Y-27632 (see Table 3). The PDCs were cultured in complete DMEM/F12 media without 10 microM Y-27632 dihydrochloride for at least two passages prior to the screen. The pooled donor HUVEC and hMSC were cultured in endothelial cell growth medium 2 (PromoCell, Heidelberg, Germany, cat. C-22011) and mesenchymal stem cell growth medium 2 (PromoCell, cat. C-28009), respectively. For all experiments, HUVEC and hMSC were used at passages </=5.
For the pre-screen, cell seeding densities were determined from a titration spanning the range from 5,000 to 313 cells per well. The mct-spheroids including 60% malignant cells, 25% HUVEC and 15% MSC dispensed as a mixture into U-bottom Ultra-Low Attachment 384-well plates (Corning, NY)
High-throughput Drug Combination Screening.
Prior to their inoculation into 384-well plates, malignant cells, HUVEC, and hMSC were removed from T flasks using TrypLE express (Thermo Fisher Scientific, cat. 12605036) and harvested by centrifugation for 5 min at 233 x g. […]
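Further: spheroids exposed to compounds for seven days before readout.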
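Wherever viability, T/C is given: 100% = DMSO vehicle control wells.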

COC1CC2CCC(C)C(O)(O2)C(=O)C(=O)N2CCCCC2C(=O)OC(C(C)CC2CCC(OCCO)C(OC)C2)CC(=O)C(C)C=C(C)C(O)C(OC)C(=O)C(C)CC(C)C=CC=CC=C1C (stereo not given) + CC(C)NCC(C(=O)N1CCN(c2ncnc3c2C(C)CC3O)CC1)c1ccc(Cl)cc1
IC50 (second compound 0.3 µM): > 100 nM
IC50 (second compound 0.949 µM): > 100 nM
IC50 (second compound 3 µM): > 100 nM
IC50 (second compound 9.49 µM): > 100 nM
IC50 (second compound 30 µM): > 100 nM
viability, T/C (second compound 0.3 µM, first compound 0.000316 µM): 93.1%
viability, T/C (second compound 0.3 µM, first compound 0.001 µM): 102%
viability, T/C (second compound 0.3 µM, first compound 0.00316 µM): 104%
viability, T/C (second compound 0.3 µM, first compound 0.01 µM): 107%
viability, T/C (second compound 0.3 µM, first compound 0.0316 µM): 101%
viability, T/C (second compound 0.3 µM, first compound 0.1 µM): 102%
viability, T/C (second compound 0.949 µM, first compound 0.000316 µM): 103%
viability, T/C (second compound 0.949 µM, first compound 0.001 µM): 106%
viability, T/C (second compound 0.949 µM, first compound 0.00316 µM): 100%
viability, T/C (second compound 0.949 µM, first compound 0.01 µM): 92.1%
viability, T/C (second compound 0.949 µM, first compound 0.0316 µM): 87.3%
viability, T/C (second compound 0.949 µM, first compound 0.1 µM): 83.5%
viability, T/C (second compound 3 µM, first compound 0.000316 µM): 100%
viability, T/C (second compound 3 µM, first compound 0.001 µM): 97.1%
viability, T/C (second compound 3 µM, first compound 0.00316 µM): 82.9%
viability, T/C (second compound 3 µM, first compound 0.01 µM): 76.5%
viability, T/C (second compound 3 µM, first compound 0.0316 µM): 71.1%
viability, T/C (second compound 3 µM, first compound 0.1 µM): 74.4%
viability, T/C (second compound 9.49 µM, first compound 0.000316 µM): 83.8%
viability, T/C (second compound 9.49 µM, first compound 0.001 µM): 83.1%
viability, T/C (second compound 9.49 µM, first compound 0.00316 µM): 69%
viability, T/C (second compound 9.49 µM, first compound 0.01 µM): 71.4%
viability, T/C (second compound 9.49 µM, first compound 0.0316 µM): 64.3%
viability, T/C (second compound 9.49 µM, first compound 0.1 µM): 60.3%
viability, T/C (second compound 30 µM, first compound 0.000316 µM): 73.9%
viability, T/C (second compound 30 µM, first compound 0.001 µM): 69%
viability, T/C (second compound 30 µM, first compound 0.00316 µM): 63.9%
viability, T/C (second compound 30 µM, first compound 0.01 µM): 58.7%
viability, T/C (second compound 30 µM, first compound 0.0316 µM): 60.1%
viability, T/C (second compound 30 µM, first compound 0.1 µM): 54.5%
